In patent US9884818B2, “Sulphamoylpyrrolamide derivatives and the use thereof as medicaments for the treatment of hepatitis B” (Janssen Sciences Ireland UC, priority 2013, dated 2018):

What was measured:
HBV [1] = experiment: Anti-HBV activity, HepG2.2.15 stable transfected cell line, HBV DNA from secreted virions by realtime PCR; type: cell-based; details: Hepatitis B virus, HepG2.2.15, 144 h, HepG2.2.15 cells, 6 days of treatment, HBV DNA from secreted virions; read-out: HepG2 2.15 EC50
HBV [2] = experiment: Anti-HBV activity, HepG2.117 inducibly HBV producing cell line (Tet-off), intracellular HBV DNA by realtime PCR; type: cell-based; details: Hepatitis B virus, HepG2.117, 72 h, HepG2.117 cells, 3 days of treatment, intracellular HBV DNA; read-out: HepG2 117 EC50
[3] = Cytotoxicity in HepG2 cells, Resazurin viability assay; details: human, HepG2 cells, HepG2 4 days CC50 (μM), incubated for 4 days, Resazurin assay

Row | SMILES | EC50 (HBV [1]) [nM] | EC50 (HBV [2]) [nM] | CC50 at 4 days [3] [µM]
1 | Cn1cc(S(=O)(=O)NC(C)(C)C)cc1C(=O)Nc1ccc(F)c(F)c1 [Compound 19, 4-(tert-butylsulfamoyl)-N-(3,4-difluorophenyl)-1-methyl-pyrrole-2-carboxamide] | 60 | 80 | > 25
2 | CC[C@@H](C)NS(=O)(=O)c1cn(C)c(C(=O)Nc2ccc(F)c(C#N)c2)c1Cl [Compound 295, 3-chloro-N-(3-cyano-4-fluoro-phenyl)-1-methyl-4-[[(1R)-1-methyl-propyl]sulfamoyl]pyrrole-2-carboxamide] | 20 | 30 | > 25
3 | C[C@@H](NS(=O)(=O)c1cn(C)c(C(=O)Nc2ccc(F)c(C#N)c2F)c1F)C(F)(F)F [Compound 181, N-(3-Cyano-2,4-difluorophenyl)-3-fluoro-1-methyl-4-{[(1R)-2,2,2-trifluoro-1-methylethyl]sulfamoyl}-1H-pyrrole-2-carboxamide] | 8 | 6 | > 25
4 | [2H]c1c(F)c(F)c(F)c([2H])c1NC(=O)c1cc(S(=O)(=O)NC(C)(C)C)cn1C [Compound 71, 4-(tert-butylsulfamoyl)-N-(2,6-dideuterio-3,4,5-trifluoro-phenyl)-1-methyl-pyrrole-2-carboxamide] | 100 | 130 | > 25
5 | Cc1cc(NC(=O)c2cc(S(=O)(=O)NC(C)C)cn2C)ccc1F [Compound 2, N-(4-fluoro-3-methyl-phenyl)-4-(isopropylsulfamoyl)-1-methyl-pyrrole-2-carboxamide] | 30 | 60 | > 25
6 | Cn1cc(S(=O)(=O)NCCC(F)(F)F)cc1C(=O)Nc1cc(F)c(F)c(Cl)c1 [Compound 168, N-(3-Chloro-4,5-difluorophenyl)-1-methyl-4-[(3,3,3-trifluoropropyl)sulfamoyl]-1H-pyrrole-2-carboxamide] | 120 | 320 | > 25
7 | C[C@@H](NS(=O)(=O)c1cn(C)c(C(=O)Nc2ccc(F)c(Cl)c2F)c1F)C(F)(F)F [Compound 185, N-(3-Chloro-2,4-difluorophenyl)-3-fluoro-1-methyl-4-{[(1R)-2,2,2-trifluoro-1-methylethyl]sulfamoyl}-1H-pyrrole-2-carboxamide] | 6 | 5 | > 25
8 | Cn1cc(S(=O)(=O)NC2(C)COC2)cc1C(=O)Nc1cc(F)c(F)c(F)c1 [Compound 27, 1-methyl-4-[(3-methyloxetan-3-yl)sulfamoyl]-N-(3,4,5-trifluorophenyl)pyrrole-2-carboxamide] | 40 | 60 | > 25
9 | CCC(C)(NS(=O)(=O)c1cc(C(=O)Nc2ccc(F)c(C#N)c2)n(C)c1)C(F)(F)F (stereo not drawn) [Compound 246, N-(3-cyano-4-fluoro-phenyl)-1-methyl-4-{[1-methyl-1-(trifluoro-methyl)propyl]sulfamoyl}-1H-pyrrole-2-carboxamide] | 50 | 60 | > 25
10 | Cn1cc(S(=O)(=O)NC(C)(C)C)c(Cl)c1C(=O)Nc1ccc(F)c(Cl)c1F [Compound 224, 4-(tert-Butylsulfamoyl)-3-chloro-N-(3-chloro-2,4-difluorophenyl)-1-methyl-1H-pyrrole-2-carboxamide] | 220 | 260 | > 25
11 | C[C@@H](NS(=O)(=O)c1cc(C(=O)Nc2ccc(F)c(C#N)c2)n(C)c1)C(F)(F)F [Compound 157, N-(3-cyano-4-fluoro-phenyl)-1-methyl-4-[[(1R)-2,2,2-trifluoro-1-methylethyl]sulfamoyl]pyrrole-2-carboxamide] | 80 | 50 | > 25
12 | CC(C)NS(=O)(=O)c1cc(C(=O)Nc2ccc(F)c(C(F)(F)F)c2)n(C)c1 [Compound 44, N-[4-fluoro-3-(trifluoromethyl)phenyl]-4-(isopropylsulfamoyl)-1-methyl-pyrrole-2-carboxamide] | 370 | 260 | > 25
13 | Cn1cc(S(=O)(=O)NC2(C)CC(F)(F)C2)cc1C(=O)Nc1ccc(F)c(Cl)c1F [Compound 256, N-(3-chloro-2,4-difluoro-phenyl)-4-[(3,3-difluoro-1-methyl-cyclo-butyl)sulfamoyl]-1-methyl-1H-pyrrole-2-carboxamide] | 20 | 30 | > 25
14 | CC[C@@H](NS(=O)(=O)c1cn(C)c(C(=O)Nc2ccc(F)c(C#N)c2)c1F)C(F)(F)F [Compound 288, N-(3-cyano-4-fluoro-phenyl)-3-fluoro-1-methyl-4-[[(1R)-1-(trifluoro-methyl)propyl]sulfamoyl]pyrrole-2-carboxamide] | 7 | 10 | > 25
15 | C[C@@H](NS(=O)(=O)c1c(F)c(C(=O)Nc2ccc(F)c(C#N)c2)n(C)c1C#N)C(F)(F)F [Compound 310, 5-cyano-N-(3-cyano-4-fluoro-phenyl)-3-fluoro-1-methyl-4-[[(1R)-2,2,2-trifluoro-1-methyl-ethyl]sulfamoyl]pyrrole-2-carboxamide] | 70 | 160 | > 25
16 | C[C@@H](NS(=O)(=O)c1cn(C)c(C(=O)Nc2ccc(F)c(C(F)(F)F)c2)c1Cl)C(F)(F)F [Compound 274, 3-chloro-N-[4-fluoro-3-(trifluoromethyl)phenyl]-1-methyl-4-[[(1R)-2,2,2-trifluoro-1-methyl-ethyl]sulfamoyl]pyrrole-2-carboxamide] | 20 | 40 | 19.4
17 | Cc1cc(NC(=O)c2cc(S(=O)(=O)NC(C)C)c[nH]2)ccc1F [Compound 1, N-(4-fluoro-3-methyl-phenyl)-4-(isopropylsulfamoyl)-1H-pyrrole-2-carboxamide] | 420 | 3100 | > 25
18 | Cc1cc(NC(=O)c2cc(S(=O)(=O)NC(C)C)cn2C)cc(F)c1F [Compound 33, N-(3,4-difluoro-5-methyl-phenyl)-4-(isopropylsulfamoyl)-1-methyl-pyrrole-2-carboxamide] | 30 | 40 | > 25
19 | Cc1cc(NC(=O)c2c(F)c(S(=O)(=O)NC3(C)COC3)cn2C)ccc1F [Compound 94, 3-Fluoro-N-(4-fluoro-3-methylphenyl)-1-methyl-4-[(3-methyloxetan-3-yl)sulfamoyl]-1H-pyrrole-2-carboxamide] | 9 | 10 | > 25
20 | Cn1cc(S(=O)(=O)NC2(C)COC2)cc1C(=O)Nc1cc(Cl)cc(C#N)c1 [Compound 87, N-(3-Chloro-5-cyanophenyl)-1-methyl-4-[(3-methyloxetan-3-yl)sulfamoyl]-1H-pyrrole-2-carboxamide] | 960 | > 1000 | > 25
21 | Cn1cc(S(=O)(=O)NC2(C)COC2)c(F)c1C(=O)Nc1ccc(F)c(F)c1 [Compound 74, N-(3,4-difluorophenyl)-3-fluoro-1-methyl-4-[(3-methyloxetan-3-yl)-sulfamoyl]pyrrole-2-carboxamide] | 20 | 20 | > 25
22 | Cc1cc(NC(=O)c2cc(S(=O)(=O)N[C@H]3CCOC3)cn2C)ccc1F [Compound 4, N-(4-fluoro-3-methyl-phenyl)-1-methyl-4-[[(3S)-tetrahydrofuran-3-yl]-sulfamoyl]pyrrole-2-carboxamide] | 100 | 60 | > 25
23 | Cc1c(S(=O)(=O)N[C@H](C)C(F)(F)F)cn(C)c1C(=O)Nc1ccc(F)c(F)c1 [Compound 144, N-(3,4-Difluorophenyl)-1,3-dimethyl-4-{[(1R)-2,2,2-trifluoro-1-methylethyl]sulfamoyl}-1H-pyrrole-2-carboxamide] | 50 | 70 | > 25
24 | Cn1cc(S(=O)(=O)NC2(C)COC2)cc1C(=O)Nc1ccc(F)c(OC(F)(F)F)c1 [Compound 86, N-[4-Fluoro-3-(trifluoromethoxy)phenyl]-1-methyl-4-[(3-methyloxetan-3-yl)sulfamoyl]-1H-pyrrole-2-carboxamide] | 370 | 350 | > 25
25 | C[C@@H](NS(=O)(=O)c1cn(C)c(C(=O)Nc2ccc(F)c(Br)c2F)c1F)C(F)(F)F [Compound 184, N-(3-Bromo-2,4-difluorophenyl)-3-fluoro-1-methyl-4-{[(1R)-2,2,2-trifluoro-1-methylethyl]sulfamoyl}-1H-pyrrole-2-carboxamide] | 8 | 6 | > 25
26 | Cc1c(F)ccc(NC(=O)c2cc(S(=O)(=O)NC(C)(C)C)cn2C)c1F [Compound 112, 4-(tert-butylsulfamoyl)-N-(2,4-difluoro-3-methyl-phenyl)-1-methyl-pyrrole-2-carboxamide] | 60 | 90 | > 25
27 | Cn1cc(S(=O)(=O)NC2(C)COC2)cc1C(=O)Nc1ccc(F)c(F)c1 [Compound 20, N-(3,4-difluorophenyl)-1-methyl-4-[(3-methyloxetan-3-yl)sulfamoyl]pyrrole-2-carboxamide] | 70 | 60 | > 25
28 | CC(C)NS(=O)(=O)c1cn(C)c(C(=O)Nc2ccc(F)c(F)c2)c1F [Compound 232, N-(3,4-Difluorophenyl)-3-fluoro-1-methyl-4-[(1-methylethyl)sulfamoyl]-1H-pyrrole-2-carboxamide] | 20 | 20 | > 25
29 | Cc1cc(NC(=O)c2cc(S(=O)(=O)N[C@H](C)CO)cn2C)ccc1F [Compound 3, N-(4-fluoro-3-methyl-phenyl)-4-[[(1R)-2-hydroxy-1-methyl-ethyl]sulfamoyl]-1-methyl-pyrrole-2-carboxamide] | 70 | 100 | > 25
